System: Mythimna separata
Assay: Test Example 1: efficacy on Mythimna separata (treated artificial feed)
Type: in vivo
Conditions: 1 μl of emulsion (I) (5% active ingredient) in 0.8 g artificial feed; second instar larvae; 25° C.; fifth day
Text: 5 parts of the heteroaryl azole compound of the present invention, 93.6 parts of dimethylformamide, and 1.4 parts of polyoxyethylene alkyl aryl ether were mixed and dissolved to prepare emulsion (I) containing 5% of the active ingredient.
For a control, 98.5 parts of dimethylformamide and 1.5 parts of polyoxyethylene alkyl aryl ether were mixed and dissolved to prepare emulsion (II).
Insecticidal rate (%)=(The number of dead insects/The number of tested insects)×100
0.8 g of commercially available artificial feed (Insecta LFS, manufactured by Nosan Corp.) and 1 μl of the emulsion (I) were well mixed to obtain test feed.
A plastic test container (capacity: 1.4 ml) was packed with 0.2 g of the test feed per treatment plot. Then, two second instar larvae of Mythimna separata were inoculated to each treatment plot. A plastic lid was put on the test container so as to prevent escape of the second instar larvae of Mythimna separata. The container was placed in a thermostat chamber of 25° C. On the fifth day, the insecticidal rate and the food intake were examined. The test was conducted in duplicate.
The insecticidal rate and the food intake of a control plot were examined in the same way as in Test Example 1 except that the emulsion (I) was changed to the emulsion (II).

CCS(=O)(=O)c1cnc(N)nc1-c1ncc(C(F)(F)C(F)(F)C(F)(F)C(F)(F)F)n1C [a-8]
insecticidal rate or food intake as compared with the control plot: insecticidal rate of 100% for Mythimna separata or a food intake of 10% or less

CCS(=O)(=O)c1cnc(OC)nc1-c1ncc(C(F)(F)C(F)(F)C(F)(F)C(F)(F)F)n1C [a-9]
insecticidal rate or food intake as compared with the control plot: insecticidal rate of 100% for Mythimna separata or a food intake of 10% or less

CCS(=O)(=O)c1cc(C2CC2)cnc1-c1ncc(C(F)(F)C(F)(F)C(F)(F)C(F)(F)F)n1C [b-1]
insecticidal rate or food intake as compared with the control plot: insecticidal rate of 100% for Mythimna separata or a food intake of 10% or less

CCSc1cccnc1-c1ncc(C(F)(F)C(F)(F)C(F)(F)C(F)(F)F)n1C [b-2]
insecticidal rate or food intake as compared with the control plot: insecticidal rate of 100% for Mythimna separata or a food intake of 10% or less

CCS(=O)(=O)c1cccnc1-c1ncc(C(F)(F)C(F)(F)C(F)(F)C(F)(F)F)n1C [b-3]
insecticidal rate or food intake as compared with the control plot: insecticidal rate of 100% for Mythimna separata or a food intake of 10% or less

CCS(=O)(=O)c1cc(C(F)(F)F)cnc1-c1ncc(C(F)(F)C(F)(F)C(F)(F)C(F)(F)F)n1C [b-7]
insecticidal rate or food intake as compared with the control plot: insecticidal rate of 100% for Mythimna separata or a food intake of 10% or less

CCS(=O)(=O)c1ccc(-n2cncn2)nc1-c1ncc(C(F)(F)C(F)(F)C(F)(F)C(F)(F)F)n1C [b-8]
insecticidal rate or food intake as compared with the control plot: insecticidal rate of 100% for Mythimna separata or a food intake of 10% or less

CCS(=O)(=O)c1ccc(-c2ncccn2)nc1-c1ncc(C(F)(F)C(F)(F)C(F)(F)C(F)(F)F)n1C [b-9]
insecticidal rate or food intake as compared with the control plot: insecticidal rate of 100% for Mythimna separata or a food intake of 10% or less

CCS(=O)(=O)c1ccc(-n2cncn2)nc1-c1ncc(C(F)C(F)(F)C(F)(F)C(F)(F)C(F)(F)F)n1C (stereo not drawn) [b-10]
insecticidal rate or food intake as compared with the control plot: insecticidal rate of 100% for Mythimna separata or a food intake of 10% or less

CCS(=O)(=O)c1cccnc1-c1ncc(C(F)C(F)(F)C(F)(F)C(F)(F)C(F)(F)F)n1C (stereo not drawn) [b-11]
insecticidal rate or food intake as compared with the control plot: insecticidal rate of 100% for Mythimna separata or a food intake of 10% or less

CCS(=O)(=O)c1ccc(N)nc1-c1ncc(C(F)(F)C(F)(F)C(F)(F)C(F)(F)F)n1C [b-12]
insecticidal rate or food intake as compared with the control plot: insecticidal rate of 100% for Mythimna separata or a food intake of 10% or less

CCS(=O)(=O)c1ccc(-n2cncn2)nc1-c1ncc(C(Cl)C(F)(F)C(F)(F)C(F)(F)C(F)(F)F)n1C (stereo not drawn) [b-13]
insecticidal rate or food intake as compared with the control plot: insecticidal rate of 100% for Mythimna separata or a food intake of 10% or less

CCS(=O)(=O)c1cc(C(F)(F)F)cnc1-c1ncc(C(F)(F)C(F)(F)C(F)(F)F)n1C [b-15]
insecticidal rate or food intake as compared with the control plot: insecticidal rate of 100% for Mythimna separata or a food intake of 10% or less

CCS(=O)(=O)c1ccc(-n2cncn2)nc1-c1ncc(C(F)(F)C(F)(F)C(F)(F)F)n1C [b-16]
insecticidal rate or food intake as compared with the control plot: insecticidal rate of 100% for Mythimna separata or a food intake of 10% or less

CCS(=O)(=O)c1ccc(-n2cncn2)nc1-c1ncc(C(F)(F)C(F)(F)F)n1C [b-17]
insecticidal rate or food intake as compared with the control plot: insecticidal rate of 100% for Mythimna separata or a food intake of 10% or less

CCS(=O)(=O)c1cc(C2CC2)cnc1-c1ncc(C(F)C(F)(F)C(F)(F)C(F)(F)F)n1C (stereo not drawn) [b-18]
insecticidal rate or food intake as compared with the control plot: insecticidal rate of 100% for Mythimna separata or a food intake of 10% or less

CCS(=O)(=O)c1cc(C2CC2)cnc1-c1ncc(C(F)(F)C(F)(F)C(F)(F)F)n1C [b-20]
insecticidal rate or food intake as compared with the control plot: insecticidal rate of 100% for Mythimna separata or a food intake of 10% or less

CCS(=O)(=O)c1cc(-c2ncccn2)cnc1-c1ncc(C(F)(F)C(F)(F)F)n1C [b-22]
insecticidal rate or food intake as compared with the control plot: insecticidal rate of 100% for Mythimna separata or a food intake of 10% or less

CCS(=O)(=O)c1cc(Br)cnc1-c1ncc(C(F)C(F)(F)C(F)(F)F)n1C (stereo not drawn) [b-23]
insecticidal rate or food intake as compared with the control plot: insecticidal rate of 100% for Mythimna separata or a food intake of 10% or less

CCS(=O)(=O)c1cc(-c2ncccn2)cnc1-c1ncc(C(F)C(F)(F)C(F)(F)F)n1C (stereo not drawn) [b-24]
insecticidal rate or food intake as compared with the control plot: insecticidal rate of 100% for Mythimna separata or a food intake of 10% or less

CCS(=O)(=O)c1cc(C2CC2)cnc1-c1ncc(C(F)C(F)(F)C(F)(F)F)n1C (stereo not drawn) [b-25]
insecticidal rate or food intake as compared with the control plot: insecticidal rate of 100% for Mythimna separata or a food intake of 10% or less

CCS(=O)(=O)c1cc(C2CC2)cnc1-c1ncc(C(F)(F)C(F)(F)F)n1C [b-26]
insecticidal rate or food intake as compared with the control plot: insecticidal rate of 100% for Mythimna separata or a food intake of 10% or less

CCS(=O)(=O)c1cc(-c2ccccn2)cnc1-c1ncc(C(F)C(F)(F)C(F)(F)F)n1C (stereo not drawn) [b-27]
insecticidal rate or food intake as compared with the control plot: insecticidal rate of 100% for Mythimna separata or a food intake of 10% or less

CCS(=O)(=O)c1cc(-c2ccccn2)cnc1-c1ncc(C(F)(F)C(F)(F)C(F)(F)F)n1C [b-29]
insecticidal rate or food intake as compared with the control plot: insecticidal rate of 100% for Mythimna separata or a food intake of 10% or less

CCS(=O)(=O)c1cc(-c2ncccn2)cnc1-c1ncc(C(Cl)C(F)(F)C(F)(F)F)n1C (stereo not drawn) [b-32]
insecticidal rate or food intake as compared with the control plot: insecticidal rate of 100% for Mythimna separata or a food intake of 10% or less

CCS(=O)(=O)c1cc(-c2cc(F)cc(F)c2)cnc1-c1ncc(C(F)C(F)(F)C(F)(F)F)n1C (stereo not drawn) [b-34]
insecticidal rate or food intake as compared with the control plot: insecticidal rate of 100% for Mythimna separata or a food intake of 10% or less

CCS(=O)(=O)c1cc(-c2cncnc2)cnc1-c1ncc(C(F)C(F)(F)C(F)(F)F)n1C (stereo not drawn) [b-35]
insecticidal rate or food intake as compared with the control plot: insecticidal rate of 100% for Mythimna separata or a food intake of 10% or less

CCS(=O)(=O)c1cc(-n2ccc(C(F)(F)F)n2)cnc1-c1ncc(C(F)(F)C(F)(F)C(F)(F)F)n1C [b-36]
insecticidal rate or food intake as compared with the control plot: insecticidal rate of 100% for Mythimna separata or a food intake of 10% or less

C=Cc1cnc(-c2ncc(C(F)C(F)(F)C(F)(F)F)n2C)c(S(=O)(=O)CC)c1 (stereo not drawn) [b-39]
insecticidal rate or food intake as compared with the control plot: insecticidal rate of 100% for Mythimna separata or a food intake of 10% or less

CCS(=O)(=O)c1cc(NC(=O)C2CC2)cnc1-c1ncc(C(F)(F)C(F)(F)C(F)(F)F)n1C [b-41]
insecticidal rate or food intake as compared with the control plot: insecticidal rate of 100% for Mythimna separata or a food intake of 10% or less

CCS(=O)(=O)c1cc(C(C)(C)C#N)cnc1-c1ncc(C(F)(F)C(F)(F)C(F)(F)F)n1C [b-42]
insecticidal rate or food intake as compared with the control plot: insecticidal rate of 100% for Mythimna separata or a food intake of 10% or less

CCS(=O)(=O)c1cc(-c2ccccn2)cnc1-c1ncc(C(F)C(F)(C(F)(F)F)C(F)(F)F)n1C (stereo not drawn) [b-43]
insecticidal rate or food intake as compared with the control plot: insecticidal rate of 100% for Mythimna separata or a food intake of 10% or less

CCS(=O)(=O)c1cc(-c2ccccn2)cnc1-c1ncc(C(Cl)C(F)(C(F)(F)F)C(F)(F)F)n1C (stereo not drawn) [b-44]
insecticidal rate or food intake as compared with the control plot: insecticidal rate of 100% for Mythimna separata or a food intake of 10% or less

CCS(=O)(=O)c1cc(-n2cncn2)cnc1-c1ncc(C(F)(F)C(F)(F)C(F)(F)F)n1C [b-45]
insecticidal rate or food intake as compared with the control plot: insecticidal rate of 100% for Mythimna separata or a food intake of 10% or less

CCS(=O)(=O)c1cc(C2CC2)cnc1-c1ncc(C(F)C(F)(C(F)(F)F)C(F)(F)F)n1C (stereo not drawn) [b-52]
insecticidal rate or food intake as compared with the control plot: insecticidal rate of 100% for Mythimna separata or a food intake of 10% or less

CCS(=O)(=O)c1cc(C2CC2)cnc1-c1ncc(C(Cl)C(F)(C(F)(F)F)C(F)(F)F)n1C (stereo not drawn) [b-53]
insecticidal rate or food intake as compared with the control plot: insecticidal rate of 100% for Mythimna separata or a food intake of 10% or less

CCS(=O)(=O)c1cc(-c2ncccc2C#N)cnc1-c1ncc(C(F)(F)C(F)(F)C(F)(F)F)n1C [b-54]
insecticidal rate or food intake as compared with the control plot: insecticidal rate of 100% for Mythimna separata or a food intake of 10% or less

CCS(=O)(=O)c1cc(-c2ncccc2F)cnc1-c1ncc(C(F)(F)C(F)(F)C(F)(F)F)n1C [b-55]
insecticidal rate or food intake as compared with the control plot: insecticidal rate of 100% for Mythimna separata or a food intake of 10% or less

CCS(=O)(=O)c1cc(C2(c3ccccn3)CC2)cnc1-c1ncc(C(F)C(F)(C(F)(F)F)C(F)(F)F)n1C (stereo not drawn) [b-57]
insecticidal rate or food intake as compared with the control plot: insecticidal rate of 100% for Mythimna separata or a food intake of 10% or less

CCS(=O)(=O)c1cc(-c2ccccc2F)cnc1-c1ncc(C(F)(F)C(F)(F)C(F)(F)F)n1C [b-58]
insecticidal rate or food intake as compared with the control plot: insecticidal rate of 100% for Mythimna separata or a food intake of 10% or less

CCS(=O)(=O)c1cc(-c2ccccn2)cnc1-c1ncc(C(F)(F)C(F)(F)C(F)(F)C(F)(F)F)n1C [b-59]
insecticidal rate or food intake as compared with the control plot: insecticidal rate of 100% for Mythimna separata or a food intake of 10% or less

CCS(=O)(=O)c1cc(-c2cc(F)cc(F)c2)cnc1-c1ncc(C(F)(F)C(F)(F)C(F)(F)F)n1C [b-60]
insecticidal rate or food intake as compared with the control plot: insecticidal rate of 100% for Mythimna separata or a food intake of 10% or less

— US20210380556A1, “HETEROARYLAZOLE COMPOUND AND PEST CONTROL AGENT” (Nippon Soda Co., Ltd., priority 2018, published 2021)
